Measured values published in publication PMC6522510 (Nature Communications, 2019).
Counter-ions that a name gives are not always drawn. Like-named read-outs stand apart in the source and are kept apart here. Square brackets hold non-standard residues; d marks the D form. Peptide text beside a SMILES is read from it. Nle = CCCC[C@H](N)C(=O)O

Legend:
Design in all cases: species or system AML cell lines (8); Primary HTS, single concentration about 10 uM, Cell Titer Glo viability; log10 luminescence, per cent inhibition relative to cycloheximide control
Settings in all cases: 72 h, relative to cycloheximide control, log10 luminescence, inhibitor
M07e = tested on: M07e
MOLM-13 = tested on: MOLM-13
CMK = tested on: CMK
U937 = tested on: U937
CMS = tested on: CMS
MV4-11 = tested on: MV4-11
ML-2 = tested on: ML-2
CHRF288-11 = tested on: CHRF288-11

SMILES	M07e %inh (M07e) [%]	MOLM-13 %inh (MOLM-13) [%]	CMK %inh (CMK) [%]	U937 %inh (U937) [%]	CMS %inh (CMS) [%]	MV4-11 %inh (MV4-11) [%]	ML-2 %inh (ML-2) [%]	CHRF288-11 %inh (CHRF288-11) [%]	M07e %inh (M07e; M07e %inh, 10 µM) [%]	MOLM-13 %inh (MOLM-13; MOLM-13 %inh, 10 µM) [%]	CMK %inh (CMK; CMK %inh, 10 µM) [%]	U937 %inh (U937; U937 %inh, 10 µM) [%]	CMS %inh (CMS; CMS %inh, 10 µM) [%]	MV4-11 %inh (MV4-11; MV4-11 %inh, 10 µM) [%]	ML-2 %inh (ML-2; ML-2 %inh, 10 µM) [%]	CHRF288-11 %inh (CHRF288-11; CHRF288-11 %inh, 10 µM) [%]
NC1=NC(=O)/C(=C/c2ccc3ncccc3c2)S1 [SJ000581167-1]	-0.544	12.5	14.91	10.35	1.297	20.86	6.393	7.843								
COc1ccc(N2Cc3cnc(Nc4ccccc4)nc3N([C@@H]3CC[C@@H](O)C3)C2=O)cc1 [SJ000581169-1]	3.499	15.09	31.32	3.756	-0.5577	9.017	3.259	84.91								
CN1CCN(CCc2cccc(C(=O)c3cnn(-c4ccc(F)cc4)c3N)c2)CC1 [SJ000581170-1]	1.993	4.249	6.346	7.701	1.769	3.349	2.973	-2.499								
Cn1c(=O)c(Oc2ccccc2)cc2cnc(NC3CCOCC3)nc21 [SJ000581171-1]	1.8	4.705	8.741	5.834	6.487	4.76	2.493	9.708								
Nc1c(C(=O)c2cccc(-c3ccncc3)c2)cnn1-c1ccc(F)cc1 [SJ000581172-1]	6.562	5.84	6.56	13.25	2.678	2.351	3.419	-2.059								
Cc1[nH]nc2c1N=C(c1ccccc1Cl)c1cc([N+](=O)[O-])ccc1N2 [SJ000581173-1]	57.3	62.4	116.1	91.37	91.81	86.62	56.78	37.73								
Nc1c(C(=O)c2ccc(C#CCN3CCOCC3)cc2)cnn1-c1ccc(F)cc1 [SJ000581175-1]	-0.05766	6.812	5.964	8.015	1.749	6.7	-0.5007	-0.8034								
CNCCCn1cc(C2=C(c3cn(C)c4ccccc34)C(=O)NC2=O)c2ccccc21 [SJ000581176-1]	23.08	86.21	37.79	9.304	6.195	44.21	2.284	23.82								
CNc1ncc2cc(Oc3ccc(F)cc3F)c(=O)n(C)c2n1 [SJ000581177-1]	-0.008012	3.528	4.145	2.229	-2.096	2.766	0.6187	-5.721								
COc1cccc(F)c1C(=O)c1cnc(NC2CCN(S(C)(=O)=O)CC2)nc1N [SJ000581178-1]	26.23	39.82	27.9	27.27	16.64	20.51	11.75	12.21								
CCCC[C@@H](C=O)NC(=O)[C@H](CC(C)C)NC(=O)OCc1ccccc1 [SJ000755074-1, CALPEPTIN]									0.9114	2.613	-0.01297	2.282	3.296	4.895	-0.6331	18.64
CCCC[C@@H](C=O)NC(=O)[C@H](CC(C)C)NC(=O)OCc1ccccc1 [SJ000755074-2, CALPEPTIN]									2.133	5.31	-0.8705	3.349	2.144	8.208	0.3376	27.98
CNC(=O)[C@H](Cc1c[nH]c2ccccc12)NC(=O)[C@@H](CC(=O)NO)CC(C)C [SJ000755078-1, GM 6001 | ILOMASTAT (GM6001, GALARDIN)]	-0.3296	3.013	-1.76	9.818	-0.9664	1.237	-0.512	9.385								
CCCCNC(=O)[C@@H]1Cc2ccccc2N1C(=O)[C@@H](N)CC [SJ000772394-1, BUTABINDIDE OXALATE]	-2.465	0.241	2.146	2.937	0.61	-1.569	-0.1457	-4.064								
CC(C)[C@H](NS(=O)(=O)c1ccc(-c2ccc(Br)cc2)cc1)C(=O)O [SJ000772395-1, PD 166793]	-2.219	0.2317	1.088	3.907	-2.252	-0.00905	-0.8645	2.843								
CCCC[C@@H](C=O)NC(=O)[C@H](CC(C)C)NC(=O)[C@H](CC(C)C)NC(C)=O [SJ000772397-1, MG 101 | ALLN] (Ac-Leu-Leu-[Nle]-aldehyde)	121	102.2	126.5	52.66	98.27	82.08	57.14	140.2								
Cc1ccc(/C=C2\CNC/C(=C\c3ccc(C)cc3)C2=O)cc1 [SJ000772404-1, NSC 632839 HYDROCHLORIDE]	129.2	99.63	116.6	84.59	103.5	77.36	61.57	82.45								
